Test results: US11345670B2, “Heterocyclic compounds for cancer imaging and treatment and methods for their use” (The University of British Columbia, priority 2015, dated 2022)

These molecules were tested on androgen receptor (AR) (assay: PSA (6.1 kb)-luciferase reporter assay in LNCaP cells induced with R1881). Details: Homo sapiens; LNCaP cells transiently transfected with PSA (6.1 kb)-luciferase; 1 h pre-treatment with compound, then R1881 (1 nM) for 24 h; value with standard error.
Format: cell-based
Method: LNCaP cells were transiently transfected with PSA (6.1 kb)-luciferase for 24 h prior to pre-treatment with compounds of the invention (e.g., compounds 1a, 9, 13) ranging in concentration from 62.5 ng/ml to 1.5 ug/ml for 1 hour before the addition of vehicle, or synthetic androgen, R1881 (1 nM) to induce luciferase production. After 24 h of incubation with R1881, the cells were harvested, and relative luciferase activities were determined. To determine the IC50, treatments were normalized to the predicted maximal activity induction (in the absence of test compounds, vehicle only).

Q: How did the IC50 turn out when `CC(C)(c1ccc(OCC(O)CCl)cc1)c1ccc(OCC(O)CN2CCOCC2)cc1` (stereo not drawn) [Compound 13, 1-chloro-3-(4-(2-(4-(2-hydroxy-3-morpholinopropoxy)phenyl)propan-2-yl)phenoxy)propan-2-ol] was run?
A: 12.8 µM

Q: Which IC50 does the source give for `CC(C)(c1ccc(OC[C@H](O)CCl)cc1)c1ccc(OC[C@H](O)Cn2nnc(CO)c2I)cc1` [Compound 1a, (S)-1-chloro-3-(4-(2-(4-((R)-2-hydroxy-3-(4-(hydroxymethyl)-5-iodo-1H-1,2,3-triazol-1-yl)propoxy)phenyl)propan-2-yl)phenoxy)propan-2-ol] here?
A: 3.23 µM

Q: `CC(C)(c1ccc(OCC(O)CCl)cc1)c1ccc(OCC(O)Cn2ccnc2)cc1` (stereo not drawn) [Compound 9, 1-chloro-3-(4-(2-(4-(2-hydroxy-3-(1H-imidazol-1-yl)propoxy)phenyl)propan-2-yl)phenoxy)propan-2-ol] was tested. Which IC50 did it give?
A: 8.45 µM
